Read-outs that look alike come from different tables or passages of the source.
Legend:
[1] = Activity on intestinal passage (vegetable carbon); format: in vivo, male mice; conditions: 2, 4 and 6 g/kg buccally; 10 minutes
Description: II--Activity on intestinal passage:
Male mice, fasting for 24 hours, weighing 18-20 g. were used.
The substances to be tested were administered buccally before a suspension of vegetable carbon (10 g/100 ml).
After 10 minutes, the animals were bled and the intestine was removed and examined.

[2] = "Shay ulcer" test (pylorus ligature); format: in vivo, female rats (Sprague-Dawley OFA Iffa-Credo)
Description: (A) Tests by the technique called "Shay ulcer" [Gastroenterology, 5, 43, (1945)].
The study was carried out on female rats [Sprague-Dawley OFA Iffa-Credo] weighing 170±10 g, conforming to the experimental protocol described below.
After fasting 48 hours, during which the rats had always available to them a 20% glucose solution, the pylorus was ligated and all beverage was eliminated.
Compound A in the form of two suspensions respectively 5 and 10% in distilled water containing 3% of gum arabic was administered orally and before the ligature of the pylorus to three groups of animals, the animals of the first two groups receiving the 5% solution and those of the third the 10% solution. These three groups of animals received active substance to the extent respectively of 250 mg/kg as regards those of the first group, 500 mg/kg as regards those of the second and 1000 mg/kg those of the third. A fourth group and control group of animals received 10 ml/kg of bidistilled water. […]
The tests having been carried out with aluminium acetyl-tryptophanate (compound A), on the one hand, and with titanium acetyl-tryptophanate (compound B), on the other hand, for each of these compounds there was determined, the "anti-ulcer dose 50" (or again active dose AD 50) by oral administration; for this determination the method of Litchfield and Wilcoxon [J. Pharmacol. 96, 98-111 (1949)], was employed. […]

[3] = 8640 min
[4] = format: in vivo, male rats
Text: (B) Interaction with a MAOI after treatment with P.C.P.A.
If the test is renewed under the same conditions but on male rats previously treated by decreasing doses of P.C.P.A. which is a tryptophane-hydroxylase inhibitor, it is observed that: […]

[5] = anti-ulcer activity after administering reserpine; format: in vivo, Sprague-Dawley female rats, OFA S.P.F. Iffa Credo strain; conditions: p.o., 3 hours before and 3 hours after reserpine 5 mg/kg i.p.; Litchfield and Wilcoxon; 1200 min
Description: (D) Study of the anti-ulcer activity of compound A (D,L) and of compound B (D,L) after administering reserpine.
The technique used was that of Cohen and A. Pessonnier (Ann. Pharm. Fr (1963) 21, 215-22) according to the following protocol:
Sprague-Dawley female rats were used, of OFA S.P.F. Iffa Credo strain weighing 150±20 g; the rats received a single injection by the intraperitoneal route of 5 mg/kg of reserpine in solution in 0.25% acetic acid; the compound studied were administered twice by the buccal route: three hours before and three hours after the injection of reserpine; the rats were sacrificed 20 hours after the injection of reserpine; the assessment was established as follows:
1 = one to two ulcers in the form of small
2 = more than two ulcers
3 = one to two ulcers in the form of more or
4 = more than two ulcers
5 = one to two ulcers in the form of "furrows"
measuring at least 5 mm
6 = more than two ulcers
Maximum assessment for one stomach : 2 + 4 + 6 = 12
From the results obtained the ulceration index was deduced; the percentage of inhibition was calculated with respect to the index obtained in the controls.
The values of the AD50 calculated according to the method of Litchfield and Wilcoxon are: […]

[6] = Interaction with a monoamine-oxidase inhibitor (MAOI, Tylciprine); format: in vivo, Sprague-Dawley male rats of OFA strain; conditions: for central nervous action indicated by hyperthermia and hyperactivity: with MAOI (Tylciprine)
Description: III--Action on the central nervous system:
(A) Interaction with a monoamine-oxidase inhibitor (MAOI):
Sprague-Dawley male rats of OFA strain received 20 mg/kg intra peritoneally of Tylciprine (MAOI) and twenty minutes later, 3 g/kg of compound A (D,L) bucally.

[7] = "stress ulcer" test (immobilization); format: in vivo, female S.P.F. Sprague-Dawley OFA Iffa-Credo rats
Description: (B) Tests according to the technique called "stress ulcer". Rossi and Bonfils--Compte rendus de la Societe de Biologie, (1956), 150, page 2124.
The study was carried out on female S.P.F. Sprague-Dawley OFA Iffa-Credo rats, weighing 140±10 g and adhering to the following experimental protocol.
To cause the ulcer, the animals were immobilized in a flexible grid with meshes of 4×4 mm and suspended horizontally; they received neither food nor drink. They were sacrificed at the end of 24 hours. The stomachs were removed and opened and then the ulcers were counted with a binocular lens.
Each stomach was assessed according to the method of J. M. LWOFF and the ulceration index calculated.
The compound A suspended in distilled water with 3% of gum arabic was administered 48 hours and 24 hours before and at the time of placing under stress to three groups of animals. These animals each received by the oral route, 500, 1000 and 1500 mg/kg of this compound according to their group.
A control group received for three days, orally gummy water in the amount of 1 ml/100 g.
As in the case of "Shay ulcer" the same study was reproduced with kaolin.
The kaolin was suspended in distilled water with 3% of gum arabic and was administered by the buccal route 48 hours and 24 hours before and at the time of placing under stress. […]

[8] = "stress ulcer" technique aggravated by para-chloro-phenyl-alanine (PCPA); format: in vivo, female S.P.F. Sprague-Dawley OFA Iffa-Credo rats; conditions: PCPA 100 mg/kg intraperitoneally
Description: (C) Tests according to the "stress ulcer" technique aggravated by para-chloro-phenyl-alanine (PCPA) administered in a non-blocking dose.
The rats used were of the same sex, same strain and had the same weight as those used in the tests described under B. The experimental protocol was also the same.
However, in these tests the rats received intraperitoneally, at the time of stressing, 100 mg/kg of PCPA in suspension in distilled water including 3% of gum arabic and an "absolute control" group was provided having received no preparation before placing under stress.
By reason of the aggravation of the ulcers caused by the PCPA, the Lwoff assessment is no longer usable and is replaced by the following:
2 : three to four ulcers in the form of
5 : one to two ulcers in the form of "fur-
6 : three to four ulcers least 5 mm in length
with a maximum of 4 + 6 = 10.
In this way it was possible to determine the ulceration index and the percentage inhibition with respect to the controls.

[9] = after PCPA 6 mg/kg for 1 day, Tylciprine
[10] = 2 g/kg, Tylciprine 20 mg/kg i.p.
[11] = 3 g/kg bucally, Tylciprine 20 mg/kg i.p.

SMILES: CC(=O)N[C@@H](Cc1c[nH]c2ccccc12)C(=O)[O-].CC(=O)N[C@@H](Cc1c[nH]c2ccccc12)C(=O)[O-].CC(=O)N[C@@H](Cc1c[nH]c2ccccc12)C(=O)[O-].[Al+3] [Compound A, monobasic-(DL) aluminium N-acetyl-tryptophanate]
- increase of intestinal passage with respect to the controls [1]: No significant increase
- activity relative to that expected by reason of Al^3+ / Ti^4+ ions alone ([2]; Shay ulcer): about 7 times higher
- AD 50 (anti-ulcer dose 50), Shay ulcer ([2]; oral, before ligature of the pylorus, 18 hours, Litchfield and Wilcoxon): 550 mg/kg
- LD50 (higher than the total dose without mortality) ([3]; oral, six days): > 15000 mg/kg
- LD 50 ([3]; orally): > 15000 mg/kg
- hyperactivity [4, 9]: notable hyperactivity
- rectal temperature [4, 9]: without variation in the rectal temperature
- hyperactivity ([4]; after PCPA 12.5 mg/kg for 1 day, Tylciprine): first signs of hyperactivity
- hyperthermia and hyperactivity ([4]; after PCPA 50 mg/kg for 2 days, Tylciprine): neither hyperthermia nor hyperactivity
- passage through the hemato-cerebral barrier ([4]; rat, in vivo): passage of its anion through the hemato-cerebral barrier
- AD50, reserpine ulcer [5]: 1447 mg/kg
- hyperactivity [6, 10]: notable hyperactivity
- hyperthermia [6, 10]: does not cause hyperthermia
- hyperthermia ([6]; 3 g/kg bucally, 20 minutes after Tylciprine 20 mg/kg i.p.): Hyperthermia was observed which commenced fairly rapidly
- hyperactivity [6, 11]: hyperactivity
- onset of hyperactivity [6, 11]: 80 min
- time of maximum hyperactivity [6, 11]: 155 min
- time of maximum hyperthermia [6, 11]: 185 min
- central nervous action indicated by hyperthermia and hyperactivity [6]: apparently central nervous serotoninergic action, that is to say antidepressive
- AD 50, stress ulcer ([7]; buccal route, 48 h and 24 h before and at time of stress, sacrificed at 24 hours): 700 mg/kg
- superiority of compound A (over kaolin), stress ulcer versus Shay ulcer ([7]; stress ulcer compared with Shay ulcer): still much more marked
- anti-ulcer activity, stress ulcer aggravated by PCPA (in words) [8]: still considerable
- AD50, stress ulcer aggravated by PCPA ([8]; oral route): 1325 mg/kg

SMILES: N[C@@H](Cc1c[nH]c2ccccc12)C(=O)O [L-tryptophane]
- central nervous action indicated by hyperthermia and hyperactivity [6]: comparable activities

From patent publication US4215136A, “Insoluble metal salts of N-acetyl-tryptophane and use thereof” (Cooperation Pharmaceutique Francaise, priority 1976, dated 1980)
